How the values were obtained:
[1] = In vivo testing, Max. ΔIOP
Text: (§1) U.S. Pat. No. 7,091,231 describes the methods used for these in vivo tests.

[2] = In vivo testing, Max. ΔIOP, Max. hyperemia
Text: as §1

[3] = target: T1, EP4 (Homo sapiens, UniProt P35408); assay: EP4 Ca2+ EC50 (in vitro testing); format: cell-based
Text: (§2) U.S. patent application Ser. No. 11/553,143, filed on Oct. 26, 2006, describes the methods used to obtain the in vitro data in the tables below.

[4] = target: T2, EP2 (Homo sapiens, UniProt P43116); assay: EP2 cAMP EC50 (in vitro testing); format: cell-based
T2 sequence (P43116 whole entry): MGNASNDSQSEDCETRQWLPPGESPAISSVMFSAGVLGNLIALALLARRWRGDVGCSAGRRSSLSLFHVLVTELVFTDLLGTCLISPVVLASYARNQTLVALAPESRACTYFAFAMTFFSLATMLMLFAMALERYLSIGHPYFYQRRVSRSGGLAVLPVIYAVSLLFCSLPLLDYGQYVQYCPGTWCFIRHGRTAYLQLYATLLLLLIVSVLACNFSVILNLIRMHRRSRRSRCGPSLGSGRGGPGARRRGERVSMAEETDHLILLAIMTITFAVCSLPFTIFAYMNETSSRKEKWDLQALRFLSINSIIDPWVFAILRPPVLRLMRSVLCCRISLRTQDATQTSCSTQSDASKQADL
Text: as §2

[5] = target: T1, EP4; assay: EP4 Ki (in vitro testing); format: binding; details: read-out: EP4 Ki EC50
Text: as §2

[6] = target: T2, EP2; assay: EP2 Ca2+ EC50 (in vitro testing); format: cell-based
Text: as §2

[7] = target: T2, EP2; assay: EP2 Ki (in vitro testing); format: binding
Text: as §2

[8] = target: T3, EP3 (Homo sapiens, UniProt P43115); assay: Other receptors Ca2+ EC50: EP3; format: cell-based; details: NA not defined in the patent
T3 sequence (P43115 1-390): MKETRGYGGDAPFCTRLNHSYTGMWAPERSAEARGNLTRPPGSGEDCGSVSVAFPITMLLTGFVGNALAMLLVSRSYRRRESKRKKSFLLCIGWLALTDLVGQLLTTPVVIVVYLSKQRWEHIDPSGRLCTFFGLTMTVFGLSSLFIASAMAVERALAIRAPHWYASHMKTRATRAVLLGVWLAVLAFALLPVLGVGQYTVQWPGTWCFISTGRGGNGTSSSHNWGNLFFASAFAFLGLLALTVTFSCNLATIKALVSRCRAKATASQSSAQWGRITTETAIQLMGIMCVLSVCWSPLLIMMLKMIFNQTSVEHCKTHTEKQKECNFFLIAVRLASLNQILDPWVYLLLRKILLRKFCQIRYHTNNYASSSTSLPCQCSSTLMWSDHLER
Text: as §2

[9] = target: T4, DP (Homo sapiens, UniProt Q13258); assay: Other receptors Ca2+ EC50: DP; format: cell-based; details: NA not defined in the patent
T4 sequence (Q13258 1-359): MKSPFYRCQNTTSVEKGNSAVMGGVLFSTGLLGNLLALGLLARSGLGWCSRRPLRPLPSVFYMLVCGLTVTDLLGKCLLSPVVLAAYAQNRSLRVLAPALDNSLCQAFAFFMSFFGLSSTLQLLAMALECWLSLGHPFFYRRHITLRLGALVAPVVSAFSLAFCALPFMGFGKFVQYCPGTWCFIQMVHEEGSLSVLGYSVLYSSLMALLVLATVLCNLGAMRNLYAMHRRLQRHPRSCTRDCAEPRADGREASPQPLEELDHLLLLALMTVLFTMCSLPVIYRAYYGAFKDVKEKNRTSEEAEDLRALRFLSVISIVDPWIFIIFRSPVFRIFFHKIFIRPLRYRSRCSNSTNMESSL
Text: as §2

T1 sequence (P35408 whole entry): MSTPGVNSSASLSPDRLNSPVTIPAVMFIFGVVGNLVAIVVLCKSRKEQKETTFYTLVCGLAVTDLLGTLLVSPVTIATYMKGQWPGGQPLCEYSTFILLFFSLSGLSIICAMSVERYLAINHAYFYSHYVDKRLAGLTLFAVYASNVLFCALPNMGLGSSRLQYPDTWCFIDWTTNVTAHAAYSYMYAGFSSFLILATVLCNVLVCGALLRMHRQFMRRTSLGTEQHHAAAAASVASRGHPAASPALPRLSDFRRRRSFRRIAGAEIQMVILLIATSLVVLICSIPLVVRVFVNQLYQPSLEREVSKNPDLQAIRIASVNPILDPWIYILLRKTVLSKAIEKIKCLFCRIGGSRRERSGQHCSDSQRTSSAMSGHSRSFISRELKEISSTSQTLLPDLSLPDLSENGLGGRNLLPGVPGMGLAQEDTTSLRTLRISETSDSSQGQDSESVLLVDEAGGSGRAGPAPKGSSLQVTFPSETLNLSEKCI

EC50 [3]	EC50 [4]	Ki [5]	EC50 [6]	Ki [7]	EC50 [8]	SMILES	also measured
–	–	–	–	–	–	CCCCCC(O)c1ccc(C2=C(Cl)CC[C@@H]2CCCc2ccc(C(=O)O)s2)cc1 (stereo partly drawn) [Compound 1]	Max. ΔIOP (%) ([1]; 0.1% dose): 62 (0.1% dose); Max. hyperemia ([2]; Conc. 0.01 g/100 mL): 1.7; Max. ΔIOP (%) ([2]; Conc. 0.01 g/100 mL): 39%
> 10000 nM	0.9 nM	1180 nM	19 nM	5 nM	–	CCCCCC(O)c1ccc(C2=CCC[C@@H]2CCCc2ccc(C(=O)O)s2)cc1 (stereo partly drawn)	–
2960 nM	0.2 nM	> 10000 nM	27 nM	2.4 nM	1820 nM	CCCCCC(O)c1ccc(C2=C(F)CC[C@@H]2CCCc2ccc(C(=O)O)s2)cc1 (stereo partly drawn)	–
–	–	–	–	–	–	CCCCC[C@@H](O)c1ccc(C2=CCC[C@@H]2CCCc2ccc(C(=O)O)s2)cc1 [Compound 7]	Max. hyperemia ([2]; Conc. 0.01 g/100 mL): 1.8; Max. ΔIOP (%) ([2]; Conc. 0.01 g/100 mL): 37%
> 10000 nM	48 nM	1540 nM	119 nM	53 nM	6980 nM	CCCCCC(O)c1ccc(C2=C(CO)CC[C@@H]2CCCc2ccc(C(=O)O)s2)cc1 (stereo partly drawn) [drawing 81]	–
2800 nM	0.45 nM	> 10000 nM	74 nM	5 nM	3540 nM	CCCCCC(O)c1ccc(C2=C(C#N)CC[C@@H]2CCCc2ccc(C(=O)O)s2)cc1 (single isomer, unassigned) [drawing 84]	–
–	1 nM	–	27 nM	18 nM	3090 nM	CCCCC[C@H](O)c1ccc(C2=CCC[C@@H]2CCCc2ccc(C(=O)O)s2)cc1 [drawing 86]	EC50 [9]: 7740 nM
–	–	–	–	–	–	CCCCC[C@H](O)c1ccc(C2=CCC[C@@H]2CCCc2ccc(C(=O)O)s2)cc1 [Compound 6]	Max. ΔIOP (%) ([1]; Conc. 0.01 g/100 mL): 31%; Max. hyperemia ([2]; Conc. 0.01 g/100 mL): 2.0; Max. ΔIOP (%) ([2]; Conc. 0.01 g/100 mL): 32%
> 10000 nM	0.4 nM	966 nM	403 nM	1.5 nM	2340 nM	CCCCCC(O)c1ccc(C2=C(Br)CC[C@@H]2CCCc2ccc(C(=O)O)s2)cc1 (stereo partly drawn) [drawing 79]	–
> 10000 nM	0.2 nM	914 nM	83 nM	5 nM	–	CCCCC[C@@H](O)c1ccc(C2=C(Cl)CC[C@@H]2CCCc2ccc(C(=O)O)s2)cc1	–
–	0.8 nM	16300 nM	36 nM	10 nM	5890 nM	CCCCC[C@@H](O)c1ccc(C2=CCC[C@@H]2CCCc2ccc(C(=O)O)s2)cc1 [drawing 87]	EC50 [9]: 9920 nM
–	–	–	–	–	–	CCCCCC(O)c1ccc(C2=C(Cl)CC[C@@H]2CCCc2ccc(C(=O)OC(C)C)s2)cc1 (stereo partly drawn) [Compound 2]	Max. ΔIOP (%) ([1]; 0.1% dose): 26%; Max. hyperemia ([2]; Conc. 0.1 g/100 mL): 1.7; Max. ΔIOP (%) ([2]; Conc. 0.1 g/100 mL): 21%
–	154 nM	175 nM	–	1370 nM	8560 nM	CCCCCC(O)c1ccc(C2=C(C#N)CC[C@@H]2CCCc2ccc(C(=O)O)s2)cc1 (stereo partly drawn)	–
> 10000 nM	54 nM	785 nM	442 nM	313 nM	9640 nM	CCCCCC(O)c1ccc(C2=C(O)C(=O)C[C@@H]2C/C=C\CCCC(=O)O)cc1 (stereo partly drawn) [drawing 82]	–
–	–	–	–	–	–	CCCCCC(O)c1ccc(C2=C(C#N)CC[C@@H]2CCCc2ccc(C(=O)O)s2)cc1 (single isomer, unassigned) [Compound 4]	Max. ΔIOP (%) ([1]; Conc. 0.003 g/100 mL): 39%; Max. hyperemia ([2]; Conc. 0.003 g/100 mL): 1.4; Max. ΔIOP (%) ([2]; Conc. 0.003 g/100 mL): 35%
–	–	–	–	–	–	CCCCCC(O)c1ccc(C2=C(C#N)CC[C@@H]2CCCc2ccc(C(=O)OCCO)s2)cc1 (stereo partly drawn) [Compound 5]	Max. ΔIOP (%) ([1]; Conc. 0.01 g/100 mL): 53%; Max. hyperemia ([2]; Conc. 0.01 g/100 mL): 1.9; Max. ΔIOP (%) ([2]; Conc. 0.01 g/100 mL): 41%
3350 nM	0.4 nM	16000 nM	65 nM	3 nM	202 nM	CCCCCC(O)c1ccc(C2=C(C#N)CC[C@@H]2CCCc2ccc(C(=O)O)s2)cc1 (single isomer, unassigned) [drawing 85]	–
955 nM	4 nM	> 10000 nM	193 nM	16 nM	7340 nM	CCCCCC(O)c1ccc(C2=C(C)CC[C@@H]2CCCc2ccc(C(=O)O)s2)cc1 (stereo partly drawn) [drawing 88]	–
> 10000 nM	0.6 nM	3680 nM	355 nM	16 nM	1490 nM	CCCCC[C@H](O)c1ccc(C2=C(Cl)CC[C@@H]2CCCc2ccc(C(=O)O)s2)cc1	–
> 10000 nM	0.7 nM	522 nM	847 nM	5 nM	3220 nM	CCCCCC(O)c1ccc(C2C(Br)=CC[C@@H]2CCCc2ccc(C(=O)O)s2)cc1 (stereo partly drawn) [drawing 83]	–
–	–	–	–	–	–	CCCCCC(O)c1ccc(C2=C(C#N)CC[C@@H]2CCCc2ccc(C(=O)O)s2)cc1 (single isomer, unassigned) [Compound 3]	Max. ΔIOP (%) ([1]; Conc. 0.003 g/100 mL): 46%; Max. hyperemia ([2]; Conc. 0.003 g/100 mL): 1.3; Max. ΔIOP (%) ([2]; Conc. 0.003 g/100 mL): 35%

Source: patent publication US9796696B2, “Substituted arylcyclopentenes as therapeutic agents” (Allergan, Inc., priority 2007, dated 2017)
